Inhibition in vivo and inhibition data for twelve compounds are collected here from US5047411A, “Benzazole compounds and pharmaceutical composition comprising the same” (Fujisawa Pharmaceutical Co., Ltd., priority 1988, dated 1991).

The structures appear in SMILES notation. Where a name gives a salt, the structure may show the parent alone.

T1 sequence (P47747 whole entry): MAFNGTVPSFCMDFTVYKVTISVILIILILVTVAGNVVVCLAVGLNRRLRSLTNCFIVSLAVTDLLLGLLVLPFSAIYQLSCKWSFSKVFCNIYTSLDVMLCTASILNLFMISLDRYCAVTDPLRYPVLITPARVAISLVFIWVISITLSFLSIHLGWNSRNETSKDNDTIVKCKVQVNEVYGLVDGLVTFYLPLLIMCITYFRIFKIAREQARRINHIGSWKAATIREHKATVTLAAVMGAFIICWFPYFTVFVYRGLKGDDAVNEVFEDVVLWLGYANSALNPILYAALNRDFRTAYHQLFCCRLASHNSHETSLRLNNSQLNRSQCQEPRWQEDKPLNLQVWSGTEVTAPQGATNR

For one experiment, the system named is stress ulcer. The experiment can be described thus: Test A: Inhibition of stress ulcer. Type of experiment: in vivo, male Sprague-Dawley rats. Conditions: rat, oral, given just before immobilization, ulcer area after 7 hours vs control. On the procedure:
Five male Sprague-Dawley rats, aged 7 weeks and weighing about 200 g were used per group for the study on stress ulcer after the fast for 24 hours. Each animal was immobilized in a restrain cage and immersed to a level of the xiphoid in a water bath kept 22° C. Each of the test compound suspended in 0.1% methylcellulose solution was administered orally (5 ml/kg) just before the immobilization. Seven hours later, the animals were sacrificed and their stomachs were removed. The stomach was then fixed with 2% formalin. The area of ulcers was measured for each animal, and percentage of inhibition was calculated by comparing the mean area of ulcers (mm^2) in the test animals with that in the control animals.
One may read the inhibition in vivo as the relative decrease from the control value, in per cent. A high value points to a response far below the control. The compound `CNc1nc2ccc(Cc3ccccn3)cc2s1` [Test Compound (a), 6-[(2-Pyridyl)methyl]-2-methylaminobenzothiazole] had an inhibition in vivo at 32 mg/kg of 87.8%.

Regarding `CCNc1nc2ccc(CCc3ccccn3)cc2s1` [Test Compound (b), 6-[2-(2-Pyridyl)ethyl]-2-ethylaminobenzothiazole], the inhibition in vivo at 32 mg/kg came to 83.9%.

Compound `Nc1nc2ccc(CCc3ccccn3)cc2s1` [Test Compound (c), 6-[2-(2-Pyridyl)ethyl]-2-aminobenzothiazole] gave an inhibition in vivo at 32 mg/kg of 88.5%.

Turning to `CCNc1nc2ccc(CCc3cn4ccc(C)cc4n3)cc2o1` [Test Compound (d)], the inhibition in vivo at 32 mg/kg amounted to 84.6%.

`Nc1nc2ccc(Cc3ccccn3)cc2s1` [Test Compound (e), 6-[(2-Pyridyl)methyl]-2-aminobenzothiazole] showed an inhibition in vivo at 32 mg/kg of 98.2%.

As to `CNc1nc2ccc(CCc3nc4cc(C)ccn4c3C)cc2o1` [Test Compound (f), 6-[2-(3,7-Dimethylimidazo[1,2-a]pyridin-2-yl)ethyl]-2-methylaminobenzoxazole], the inhibition in vivo at 32 mg/kg is 85.1%.

In turn, `Cc1ccn2c(C)c(CCc3ccc4nc(N)sc4c3)nc2c1` [Test Compound (g), 6-[2-(3,7-Dimethylimidazo[1,2-a]pyridin-2-yl)ethyl]-2-aminobenzothiazole d ihydrochloride] returned an inhibition in vivo at 32 mg/kg of 85.4%.

Turning to `COc1ccn2c(C)c(CCc3ccc4nc(N)oc4c3)nc2c1` [Test Compound (h), 6-[2-(7-Methoxy-3-methylimidazo[1,2-a]pyridin-2-yl)ethyl]-2-aminobenzoxazole], the inhibition in vivo at 32 mg/kg was 93.4%.

In turn, `CCNc1nc2ccc(CCc3nc4cc(OC)ccn4c3C)cc2o1` [Test Compound (l), 2-Ethylamino-6-[2-(7-methoxy-3-methylimidazo[1,2-a]pyridin-2-yl)ethyl]benzoxazole dihydrochloride] yielded an inhibition in vivo at 32 mg/kg of 98.6%.

The next experiment addresses T1, H2-receptor (Cavia porcellus, UniProt P47747).
T1 construct: from tissue; host or cells: guinea-pig atrium (isolated atrial strip)
The experiment is described as follows: Test B: H2-receptor antagonism in isolated guinea-pig atrium. It counts as cell-based. As to conditions: 0.5 h, dose 1.0 × 10^-6 g/ml, inhibition of histamine-induced increase in beating rate, 30 minutes after dosing. On the procedure:
The atrial strip isolated from guinea-pig was suspended under an initial tension 0.3 to 0.6 g in an organ bath containing Tyrode solution at 30° C., aerated 95%O2 -5%CO2 gas. The beating rate and amplitude of contraction of the atrium were recorded by means of a transducer and a polygraph. Histamine ([…]) was added to the bathing fluid and the increase in beating rate after dosing was measured. Addition of test compound was made 30 minutes after washing out histamine. Inhibitory effect of test compound was calculated by comparing histamine-induced increases in beating rate before and 30 minutes after dosing with test compound.
One may read the inhibition as the relative decrease from the control value, in per cent. Low readings indicate a response near the control, high ones a response far below the control. The compound `CNc1nc2ccc(CCc3nc4cc(OC)ccn4c3C)cc2o1` [Test Compound (k), 6-[2-(7-Methoxy-3-methylimidazo[1,2-a]pyridin-2-yl)ethyl]-2-methylaminobenzoxazole dihydrochloride] showed an inhibition at 1 µg/mL of 92.5%.

Still in this experiment, the particulars now being: 0.5 h, dose 3.2 × 10^-6 g/ml, inhibition of histamine-induced increase in beating rate, 30 minutes after dosing.
The compound `COc1ccn2c(C)c(CCc3ccc4nc(N)oc4c3)nc2c1` [Test Compound (h), 6-[2-(7-Methoxy-3-methylimidazo[1,2-a]pyridin-2-yl)ethyl]-2-aminobenzoxazole] displayed an inhibition at 3.2 µg/mL of 100%.

As for `Cc1ccn2c(C)c(CCc3ccc4nc(N)oc4c3)nc2c1` [Test Compound (i), 6-[2-(3,7-Dimethylimidazo[1,2-a]pyridin-2-yl)ethyl]-2-aminobenzoxazole], testing at 3.2 µg/mL gave an inhibition of 93.1%.

In turn, `CCNc1nc2ccc(CCc3nc4cc(C)ccn4c3C)cc2o1` [Test Compound (j), 6-[2-(3,7-Dimethylimidazo[1,2-a]pyridin-2-yl)ethyl]-2-ethylaminobenzoxazole] registered an inhibition at 3.2 µg/mL of 98%.
